According to patent US9529131B2, “Polarizing plate” (NITTO DENKO CORPORATION, priority 2014, dated 2016):

test: log P value (octanol/water partition coefficient); settings: not given

Compound	logP
C=CC(=O)OCCCCCCCCCOC(=O)C=C [LIGHT ACRYLATE 1,9ND-A, 1,9-nonanediol diacrylate]	3.68

same assay, conditions: shake flask method JIS Z 7260 or ChemDraw Ultra calculation, not stated which

Compound	log P
CSc1ccc(C(=O)C(C)(C)N2CCOCC2)cc1 [IRGACURE 907, 2-methyl-1-(4-methylthiophenyl)-2-morpholinopropan-1-one]	2.09
C=CC(=O)OCCN=C=O [Karenz AOI]	1.6
C=CC(=O)OCC(C)OCC(C)OCC(C)OC(=O)C=C (stereo not drawn) [TPGDA, tripropylene glycol diacrylate]	1.68
bisphenol A-propylene oxide (2 mole) adduct di(meth)acrylate	6.10
C=CC(=O)OCCCCCCCCCCOC(=O)C=C [1,10-decanediol diacrylate]	4.10
